Experimental data taken from patent publication US4226610A, “Herbicidal compounds, preparation thereof and herbicides containing the same” (Meiji Selka Kaisha, Ltd., priority 1978, dated 1980).

Key:
[1] = system: torch azalea; experiment: Experiment 3 foliar application to naturally growing shrubs; type: in vivo, Rhododendoron Kaempferi Planch.; conditions: after 3 months
Outline: (§1)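 Compounds, diluted to prescribed concentrations with 0.1% octylphenyl polyoxyethanol as surfactant, were sprayed onto the foliage of naturally growing shrubs at 150 liter per 10 are. Kill was scored on a 0 (no effect) to 5 (death) index at 1 and 3 months. Regrowth was graded from − (no reproduction) to +++ (maximum) at 3 months.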

[2] = system: progbit; experiment: Experiment 6 spray on aquatic plants in concrete pots; type: in vivo, Hydrocharis dubia; conditions: 3 months
From the text: (§2) The detail of the assessment made in the following Experiments of the invention was as follows:
(§3) Four months after treatment, evaluation was made for inhibition of reproduction expressed in terms of symbols ranging from (-) to (+++) where (-) means no reproduction, namely complete suppression of reproduction, (±) remarkable suppression of reproduction; (+) considerable suppression of reproduction; (++) medium supprestion of reproduction; and (+++) no suppression of reproduction.
(§4) A paddy field soil was packed in 50 cm. square concrete pots. omodaka (Sagittaria trifolia L.), urikawa (Sagittaria pygmaea Miq.), prog-bit (Hydrocharis dubia) and aginashi (Sagittaria Aginashi Makino) were transplanted; then water was poured onto the soil at 5 cm. depth.
(§5) Further, water hyacinth, greater-duckweed (Spirodela polyrhiza Schleid.) and duckweed (Lemna paucicostata Hegelm) were floated on the water.
(§6) After one month, the compounds of the invention diluted to the prescribed concentrations as indicated in Table 8 were sprayed in an amount of 100 liter per 10 are. As a surfactant, 0.1% of octylphenyl polyoxyethanol was added thereto.
(§7) The killing index (0, no effect; 5, death) after 21 days and 3 months and the reproduction-inhibiting effect (-, no reproduction; +++, maximum reproduction) after 3 months were determined.

[3] = system: pond scum; experiment: Experiment 7 application to water; type: in vivo, Spirogira crassa Kutz.; set-up: scale not given here
From the text: (§8) A black soil was packed in 50 cm. square concrete pots and water was poured there-onto at 50 cm. in depth. Hornwort (Ceratophyllum demersum L.), stonewort (Chara Braunii Gmel.) and salvinia (Salvinia natans All.) were transplanted and pond scum (Spirogira crassa Kutz) and diatoms (Bacillariophyta) were floated in the water.
(§9) Then, the compounds of the invention were applied dropwise onto the surface of the water so that the prescribed concentrations in the water are obtained as indicated in Table 9.

[4] = system: aginashi; experiment: Experiment 6 spray on aquatic plants in concrete pots; type: in vivo, Sagittaria Aginashi Makino; conditions: 3 months
From the text: as §2, §3, §4, §5, §6, §7

[5] = system: greaterduckweed; experiment: as above; type: in vivo, Spirodela polyrhiza Sohleid.; conditions: 3 months
From the text: as §2, §3, §4, §5, §6, §7

[6] = system: white clover; experiment: Experiment 1 foliar application to naturally growing weeds; type: in vivo, Trifolium repens L.; conditions: for Reproduction-inhibiting effect: 4 months
Outline: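 Test compounds, diluted to prescribed concentrations with 0.1% octylphenyl polyoxyethanol surfactant, were sprayed onto foliage of naturally growing weeds at 150 liter per 10 are. Killing index (0, no effect; 5, death) was scored at 21 days. Reproduction was scored from (-), complete suppression, to (+++), none, at 2 months for cockspar grass and 4 months for the other weeds.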

[7] = system: cockspar grass; experiment: as above; type: in vivo, Echinochloa Crusgalli P. Beauv.; conditions: 2 months
Outline: (§10)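 Foliar spray on field weeds at 150 liter per 10 are, compounds at prescribed concentrations plus 0.1% octylphenyl polyoxyethanol. Day 21: killing index 0–5 (5 = death). Reproduction scored (-) to (+++) (- = none): cockspar grass at 2 months, chigaya, azumanezasa and warunasubi at 4 months.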

[8] = system: yamazakura; experiment: Experiment 3 foliar application to naturally growing shrubs; type: in vivo, Prunus donarium Sieb. var. spontanae Makino; conditions: after 3 months
Outline: as §1

[9] = system: diatoms; experiment: Experiment 7 application to water; type: in vivo, Bacillariophyta; set-up: scale not given here
From the text: as §8, §9

[10] = system: azumanezasa; experiment: Experiment 1 foliar application to naturally growing weeds; type: in vivo, Pleioblastus Chino Makino; conditions: for Reproduction-inhibiting effect: 4 months; for Killing index of Upperground parts: 21 days
Outline: as §10

[11] = system: duckweed; experiment: Experiment 6 spray on aquatic plants in concrete pots; type: in vivo, Lemna paucicostata Hegelm; conditions: 3 months
From the text: as §2, §3, §4, §5, §6, §7

[12] = system: salvinia; experiment: Experiment 7 application to water; type: in vivo, Salvinia natans Allioni; set-up: scale not given here
From the text: as §8, §9

[13] = system: stonewort; experiment: Experiment 7 application to water; type: in vivo, Chara Braunii Gmel.; set-up: scale not given here
From the text: as §8, §9

[14] = system: Japanese bush cranberry; experiment: Experiment 3 foliar application to naturally growing shrubs; type: in vivo, Viburnum dilatatum Thunb.; conditions: after 3 months
Outline: as §1

[15] = system: oak; experiment: as above; type: in vivo, Quercus serrata Thunb; conditions: after 3 months
Outline: as §1

[16] = system: omodaka; experiment: Experiment 6 spray on aquatic plants in concrete pots; type: in vivo, Sagittaria trifolia L.; conditions: for Reproduction-inhibiting effect: 3 months; for Killing index: 21 days
From the text: as §2, §3, §4, §5, §6, §7

[17] = system: eulalia; experiment: Experiment 2 foliar application in Japanese cypress afforested land; type: in vivo, Miscanthus sinensis Andress.; set-up: key: 0 = no effect, 5 = death; conditions: after 3 months
Outline: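 Field foliar spray on shrubs in Japanese cypress afforested land at 150 liter per 10 are, with compounds at prescribed concentrations. Killing index scored from 0 (no effect) to 5 (death) at 30 days and 3 months. Plant heights ranged from about 50 to 100 cm.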

CP(=O)(O)CC[C@H](N)C(=O)O [L-AMPB choline, L-2-Amino-4-methylphosphino-butanoic acid choline]
+: Reproduction-inhibiting effect ([2]; 0.05%) | Reproduction-inhibiting ([14]; 0.05%) | Reproduction-inhibiting effect ([16]; 0.05%)
4: controlling effect ([3]; 1 ppm, 3 months) | controlling effect ([3]; 1 ppm, 21 days) | controlling effect ([9]; 1 ppm, 3 months) | controlling effect ([9]; 1 ppm, 21 days) | controlling effect ([12]; 1 ppm, 21 days) | controlling effect ([13]; 1 ppm, 21 days)
3.5: Killing index ([17]; 0.063%)
±: Reproduction-inhibiting effect ([4]; 0.05%) | Reproduction-inhibiting effect ([6]; 0.05%) | Reproduction-inhibiting effect ([7]; 0.05%) | Reproduction-inhibiting effect ([10]; 0.05%)
4.5: Killing index ([16]; 0.1%)
5: controlling effect ([3]; 3 ppm, 3 months) | controlling effect ([3]; 3 ppm, 21 days) | controlling effect ([3]; 10 ppm, 3 months) | controlling effect ([3]; 10 ppm, 21 days) | controlling effect ([9]; 3 ppm, 3 months) | controlling effect ([9]; 3 ppm, 21 days) | controlling effect ([9]; 10 ppm, 3 months) | controlling effect ([9]; 10 ppm, 21 days) | controlling effect ([12]; 1 ppm, 3 months) | controlling effect ([12]; 3 ppm, 3 months) | controlling effect ([12]; 3 ppm, 21 days) | controlling effect ([12]; 10 ppm, 3 months) | controlling effect ([12]; 10 ppm, 21 days) | controlling effect ([13]; 1 ppm, 3 months) | controlling effect ([13]; 3 ppm, 3 months) | controlling effect ([13]; 3 ppm, 21 days) | controlling effect ([13]; 10 ppm, 3 months) | controlling effect ([13]; 10 ppm, 21 days)
-: Reproduction-inhibiting ([1]; 0.05%) | Reproduction-inhibiting ([1]; 0.1%) | Reproduction-inhibiting ([1]; 0.2%) | Reproduction-inhibiting effect ([2]; 0.1%) | Reproduction-inhibiting effect ([2]; 0.2%) | Reproduction-inhibiting effect ([4]; 0.1%) | Reproduction-inhibiting effect ([4]; 0.2%) | Reproduction-inhibiting effect ([5]; 0.05%) | Reproduction-inhibiting effect ([5]; 0.1%) | Reproduction-inhibiting effect ([5]; 0.2%) | Reproduction-inhibiting effect ([6]; 0.1%) | Reproduction-inhibiting effect ([6]; 0.2%) | Reproduction-inhibiting effect ([7]; 0.1%) | Reproduction-inhibiting effect ([7]; 0.2%) | Reproduction-inhibiting ([8]; 0.05%) | Reproduction-inhibiting ([8]; 0.1%) | Reproduction-inhibiting ([8]; 0.2%) | Reproduction-inhibiting effect ([10]; 0.1%) | Reproduction-inhibiting effect ([10]; 0.2%) | Reproduction-inhibiting effect ([11]; 0.05%) | Reproduction-inhibiting effect ([11]; 0.1%) | Reproduction-inhibiting effect ([11]; 0.2%) | Reproduction-inhibiting ([14]; 0.1%) | Reproduction-inhibiting ([14]; 0.2%) | Reproduction-inhibiting ([15]; 0.05%) | Reproduction-inhibiting ([15]; 0.1%) | Reproduction-inhibiting ([15]; 0.2%) | Reproduction-inhibiting effect ([16]; 0.1%) | Reproduction-inhibiting effect ([16]; 0.2%)

CP(=O)(O)CCC(N)C(=O)O (racemic) [DL-AMPB choline]
1.5: Killing index of Upperground parts ([6]; 0.05%, 21 days) | Killing index of Upperground parts ([10]; 0.05%)
+++: Reproduction-inhibiting ([14]; 0.05%)
±: Reproduction-inhibiting effect ([2]; 0.1%) | Reproduction-inhibiting effect ([4]; 0.1%) | Reproduction-inhibiting effect ([6]; 0.1%) | Reproduction-inhibiting effect ([7]; 0.1%) | Reproduction-inhibiting effect ([10]; 0.1%) | Reproduction-inhibiting effect ([16]; 0.1%)
++: Reproduction-inhibiting ([1]; 0.05%) | Reproduction-inhibiting effect ([2]; 0.05%) | Reproduction-inhibiting effect ([4]; 0.05%) | Reproduction-inhibiting effect ([6]; 0.05%) | Reproduction-inhibiting effect ([7]; 0.05%) | Reproduction-inhibiting ([8]; 0.05%) | Reproduction-inhibiting effect ([10]; 0.05%) | Reproduction-inhibiting ([14]; 0.1%) | Reproduction-inhibiting ([15]; 0.05%) | Reproduction-inhibiting effect ([16]; 0.05%)
3.5: Killing index of Upperground parts ([10]; 0.1%)
+: Reproduction-inhibiting effect ([5]; 0.05%) | Reproduction-inhibiting effect ([11]; 0.05%) | Reproduction-inhibiting ([14]; 0.2%)
5: controlling effect ([3]; 3 ppm, 3 months) | controlling effect ([3]; 10 ppm, 3 months) | controlling effect ([3]; 10 ppm, 21 days) | controlling effect ([9]; 3 ppm, 3 months) | controlling effect ([9]; 10 ppm, 3 months) | controlling effect ([9]; 10 ppm, 21 days) | controlling effect ([12]; 3 ppm, 3 months) | controlling effect ([12]; 10 ppm, 3 months) | controlling effect ([12]; 10 ppm, 21 days) | controlling effect ([13]; 3 ppm, 3 months) | controlling effect ([13]; 10 ppm, 3 months) | controlling effect ([13]; 10 ppm, 21 days)
4: controlling effect ([3]; 3 ppm, 21 days) | controlling effect ([9]; 3 ppm, 21 days) | controlling effect ([12]; 3 ppm, 21 days)
1: controlling effect ([3]; 1 ppm, 3 months) | controlling effect ([9]; 1 ppm, 3 months) | controlling effect ([13]; 1 ppm, 3 months)
3: controlling effect ([9]; 1 ppm, 21 days) | controlling effect ([12]; 1 ppm, 21 days) | controlling effect ([13]; 1 ppm, 21 days)
4.5: controlling effect ([13]; 3 ppm, 21 days) | Killing index ([16]; 0.2%) | Killing index ([17]; 0.125%)
2: controlling effect ([3]; 1 ppm, 21 days) | controlling effect ([12]; 1 ppm, 3 months)
-: Reproduction-inhibiting ([1]; 0.1%) | Reproduction-inhibiting ([1]; 0.2%) | Reproduction-inhibiting effect ([2]; 0.2%) | Reproduction-inhibiting effect ([4]; 0.2%) | Reproduction-inhibiting effect ([5]; 0.1%) | Reproduction-inhibiting effect ([5]; 0.2%) | Reproduction-inhibiting effect ([6]; 0.2%) | Reproduction-inhibiting effect ([7]; 0.2%) | Reproduction-inhibiting ([8]; 0.1%) | Reproduction-inhibiting ([8]; 0.2%) | Reproduction-inhibiting effect ([10]; 0.2%) | Reproduction-inhibiting effect ([11]; 0.1%) | Reproduction-inhibiting effect ([11]; 0.2%) | Reproduction-inhibiting ([15]; 0.1%) | Reproduction-inhibiting ([15]; 0.2%) | Reproduction-inhibiting effect ([16]; 0.2%)
